Measurements taken from PMC9724349, “Discovery of a pyrano[2,3-b]pyridine derivative YX-2102 as a cannabinoid receptor 2 agonist for alleviating lung fibrosis” (Journal of Translational Medicine, 2022).

Target: T1, cannabinoid receptor 2 (CB2R) (Homo sapiens, UniProt P34972)
T1 construct: gene CNR2
Experiment: radioligand binding assay, [3H]CP […] displacement

T1 sequence (P34972 whole entry): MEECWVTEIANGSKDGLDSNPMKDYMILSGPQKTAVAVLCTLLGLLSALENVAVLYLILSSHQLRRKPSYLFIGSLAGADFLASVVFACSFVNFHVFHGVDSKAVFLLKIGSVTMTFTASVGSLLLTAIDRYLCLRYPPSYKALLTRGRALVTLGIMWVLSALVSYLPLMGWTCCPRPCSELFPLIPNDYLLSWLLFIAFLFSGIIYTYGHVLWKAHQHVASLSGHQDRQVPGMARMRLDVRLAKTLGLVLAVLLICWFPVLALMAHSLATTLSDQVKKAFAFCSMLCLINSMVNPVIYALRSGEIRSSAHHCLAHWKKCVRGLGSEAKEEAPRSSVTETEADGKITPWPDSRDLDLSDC

CCOC(=O)C1=CC(c2cccc(C)c2)C2CCC(CC(=O)c3ccccc3)OC2N1S(=O)(=O)c1ccc(C)cc1 (stereo not shown) [YX-2102]
Ki: 0.35 µM
